# Results as given in PMC6630443 (Viruses, 2019).
# Tested on: persistent USUV
# Format: cell-based, Usutu virus
SMILES,USUV infectivity in supernatant after drug removal,Viral RNA levels in cellular supernatant by day 10
"NC(=O)c1nc(F)cnc1O [Favipiravir, 6-fluoro-3-hydroxy-2-pyrazinecarboxamide]",re-emerged,barely detectable
"NC(=O)c1ncn([C@@H]2O[C@H](CO)[C@@H](O)[C@H]2O)n1 [Ribavirin, 1-(β-D-Ribofuranosyl)-1H-1,2,4-triazole-3-carboxamide]",re-emerged,barely detectable
